Reference: US20220095617A1, “PLANT GROWTH REGULATING AGENT” (IDEMITSU KOSAN CO.,LTD., priority 2019, published 2022)

Key:
lettuce (Green Wave) [1] = assay: Example 1: High-temperature stress Petri dish test (lettuce), comparison with other natural products; type: in vivo; conditions: 0.1 ppm in agar medium
lettuce (Green Wave) [2] = assay: Example 4: High-temperature stress Petri dish test (lettuce), comparison with flavonoids; type: in vivo; conditions: 0.1 ppm
Rice (Koshihikari) seeds = assay: Example 5: High-temperature stress Petri dish test (rice seeds); type: in vivo; conditions: for Germination rate, Increase rate: non-addition group = 100.0; for Germination rate, Average: seeds 65° C. hot water 10 minutes, 28° C. 5 days
Experimental: Rice (Koshihikari) seeds were soaked in hot water at 65° C. for 10 minutes to perform high-temperature treatment. […] A group similarly soaked in distilled water was provided as a non-addition group. After the soaking treatment, the seeds were dried in air, and then 20 seeds were sown on each of shallow Petri dishes in which qualitative filter paper was placed. To the filter paper in each Petri dish, 5 mL of distilled water was uniformly added dropwise. […] For each group, three measurement results were obtained (N=3).

lettuce (Green Wave) [3] = assay: Example 3: High-temperature stress Petri dish test (lettuce), blending with β-carotene; type: in vivo; conditions: 0.1 ppm
lettuce (Green Wave) [4] = assay: Example 2: High-temperature stress Petri dish test (lettuce), blending with neohesperidin
Experimental: For seeds, 2% water agar medium (using water as the solvent), which was prepared such that hesperidin (Fujifilm Wako Pure Chemical Corporation; special-grade reagent) and neohesperidin (Fujifilm Wako Pure Chemical Corporation; special-grade reagent) were contained at the predetermined final concentrations shown in Table 2, was filled into square Petri dishes (“model number: D-210-16”, manufactured by As One Corporation). Before high-temperature treatment, lettuce (Green Wave, Takii & Co., Ltd.) was sown on 2% water agar medium, and lettuce seedlings on day 2 after the sowing were transplanted to the above-described agar medium to which the hesperidin and/or the like was/were added. At the time of the transplantation, the tip of the root was marked. Each Petri dish after the transplantation was placed in an incubator (“model number: FLI-2010A”, manufactured by EYELA) at an angle of 45° with respect to the bottom surface, and high-temperature treatment was carried out at 42° C. for 1.5 hours. Thereafter, culture was similarly performed at 23° C. for 2 days, and then the increase in the root length was evaluated in terms of elongation from the tip of the root of each seedling at the time of the transplantation. In addition, for evaluation of the effect of the mixture of hesperidin and neohesperidin in normal cultivation, culture was similarly performed at 23° C. without performing the high-temperature treatment, followed by evaluation of the increase in the root length. […] The Colby's equation is as follows.
E=(x+y)−(x·y)/100 Colby's equation:
E: Expected root length x: Root length in the case of application of hesperidin alone y: Root length in the case of application of neohesperidin alone For each group, 15 measurement results were obtained (N=15).

[5] = High-temperature treatment (42° C., 1.5 hours), then 23° C. 2 days
[6] = High-temperature treatment (42° C., 1.5 hours)

| Molecule | Root length (lettuce (Green Wave) [1]; [5]) | Root length (lettuce (Green Wave) [1]; Normal cultivation) | other results |
| --- | --- | --- | --- |
| O=C(CCc1ccc(O)cc1)c1c(O)cc(O)cc1O [Phloretin, phloretin] | 14.8 mm | 21.9 mm |  |
| O=C1C[C@@H](c2ccc(O)cc2)Oc2cc(O)cc(O)c21 [Naringenin] |  |  | Root length (lettuce (Green Wave) [2]; [6]): 8.4 mm; Root length (lettuce (Green Wave) [2]; Normal cultivation): 22.1 mm |
| COc1ccc(-c2cc(=O)c3c(OC)c(OC)c(OC)c(OC)c3o2)cc1OC [Nobiletin, nobiletin] | 14.1 mm | 23.1 mm |  |
| CC1=C(/C=C/C(C)=C/C=C/C(C)=C/C=C/C=C(C)/C=C/C=C(C)/C=C/C2=C(C)C(=O)[C@@H](O)CC2(C)C)C(C)(C)C[C@H](O)C1=O [Astaxanthin, reference compound] | 11.1 mm | 20.0 mm |  |
| hesperidin methylchalcone | 16.7 mm | 22.8 mm |  |
| CC1=C(/C=C/C(C)=C/C=C/C(C)=C/C=C/C=C(C)/C=C/C=C(C)/C=C/C2=C(C)CCCC2(C)C)C(C)(C)CCC1 [β-Carotene, reference compound] | 11.2 mm | 22.3 mm | Germination rate, Increase rate (Rice (Koshihikari) seeds; 1 ppm): 118.9%; Germination rate, Increase rate (Rice (Koshihikari) seeds; 10 ppm): 134.0%; Germination rate, Increase rate (Rice (Koshihikari) seeds; 100 ppm): 103.7%; Germination rate, Average (Rice (Koshihikari) seeds; then soaked 1 hour at 1 ppm): 69.9%; Germination rate, Average (Rice (Koshihikari) seeds; then soaked 1 hour at 10 ppm): 78.8%; Germination rate, Average (Rice (Koshihikari) seeds; then soaked 1 hour at 100 ppm): 61.0%; Root length (lettuce (Green Wave) [3]; [6]): 7.5 mm; Root length (lettuce (Green Wave) [3]; Normal cultivation): 23.8 mm |
| COc1ccc([C@@H]2CC(=O)c3c(O)cc(O[C@@H]4O[C@H](CO)[C@@H](O)[C@H](O)[C@H]4O[C@@H]4O[C@@H](C)[C@H](O)[C@@H](O)[C@H]4O)cc3O2)cc1O [Neohesperidin] | 21.5 mm | 26.5 mm | Root length (lettuce (Green Wave) [4]; High-temperature treatment (42° C., 1.5 hours), 0.03 ppm): 4.9 mm; Root length (lettuce (Green Wave) [4]; High-temperature treatment (42° C., 1.5 hours), 0.1 ppm): 6.4 mm; Root length (lettuce (Green Wave) [4]; Normal cultivation, 0.03 ppm): 17.6 mm; Root length (lettuce (Green Wave) [4]; Normal cultivation, 0.1 ppm): 18.1 mm |
| COc1ccc([C@@H]2CC(=O)c3c(O)cc(O)cc3O2)cc1O [Hesperetin, hesperetin] | 18.0 mm | 23.5 mm |  |
| CC1=C(/C=C/C(C)=C/C=C/C(C)=C/C=C/C=C(C)/C=C/C=C(C)/C=C/C(=O)[C@]2(C)C[C@@H](O)CC2(C)C)C(C)(C)C[C@H](O)C1 [Capsanthin, reference compound] | 10.7 mm | 20.4 mm |  |
| COc1ccc(CCC(=O)c2c(O)cc(O[C@@H]3O[C@H](CO)[C@@H](O)[C@H](O)[C@H]3O[C@@H]3O[C@@H](C)[C@H](O)[C@@H](O)[C@H]3O)cc2O)cc1O [Neohesperidin dihydrochalcone, neohesperidin dihydrochalcone] | 15.3 mm | 23.4 mm |  |
| COc1ccc(-c2cc(=O)c3c(OC)c(OC)c(OC)c(OC)c3o2)cc1 [Tangeretin, tangeretin] | 18.1 mm | 23.5 mm |  |
| O=c1c(-c2ccc(O)cc2)coc2cc(O)ccc12 [Daidzein] |  |  | Root length (lettuce (Green Wave) [2]; [6]): 7.5 mm; Root length (lettuce (Green Wave) [2]; Normal cultivation): 26.6 mm |
| COc1ccc([C@@H]2CC(=O)c3c(O)cc(O[C@@H]4O[C@H](CO[C@@H]5O[C@@H](C)[C@H](O)[C@@H](O)[C@H]5O)[C@@H](O[C@H]5O[C@H](CO)[C@@H](O)[C@H](O)[C@H]5O)[C@H](O)[C@H]4O)cc3O2)cc1O [α-Monoglucosyl hesperidin, α-monoglucosyl hesperidin] | 18.7 mm | 23.7 mm |  |
| O=c1c(-c2ccc(O)cc2)coc2cc(O)cc(O)c12 [Genistein] |  |  | Root length (lettuce (Green Wave) [2]; [6]): 7.4 mm; Root length (lettuce (Green Wave) [2]; Normal cultivation): 25.8 mm |
